Data as given in ChEMBL document CHEMBL6127139, “Lysine-Targeted Covalent Inhibitors of PI3Kδ Synthesis and Screening by In Situ Interaction Upgradation” (J Med Chem, 2024).

Assays:
[1] = Selectivity index, ratio of IC50 for inhibition of recombinant PI3Kalpha (unknown origin) using PIP2:3PS as substrate to IC50 for inhibition of recombinant PI3Kdelta (unknown origin) using PIP2:3PS as substrate
Raji = assay: Growth inhibition of human Raji cells incubated for 72 hrs by MTT assay; type: functional
[2] = Selectivity index, ratio of IC50 for inhibition of recombinant PI3Kgamma (unknown origin) using PIP2:3PS as substrate to IC50 for inhibition of recombinant PI3Kdelta (unknown origin) using PIP2:3PS as substrate
[3] = Growth inhibition of PI3Kdelta-overexpressing human SU-DHL-6 cells incubated for 72 hrs by MTT assay; type: functional
[4] = Selectivity index, ratio of IC50 for inhibition of recombinant PI3Kbeta (unknown origin) using PIP2:3PS as substrate to IC50 for inhibition of recombinant PI3Kdelta (unknown origin) using PIP2:3PS as substrate
[5] = target: Phosphatidylinositol 4,5-bisphosphate 3-kinase catalytic subunit alpha isoform (Homo sapiens, UniProt P42336); assay: Inhibition of recombinant PI3Kalpha (unknown origin) using PIP2:3PS as substrate preincubated for 20 mins followed by ATP addition and measured after 1 hrs by ADP-Glo reagent based assay
Sequence of Phosphatidylinositol 4,5-bisphosphate 3-kinase catalytic subunit alpha isoform (P42336 whole entry, canonical isoform): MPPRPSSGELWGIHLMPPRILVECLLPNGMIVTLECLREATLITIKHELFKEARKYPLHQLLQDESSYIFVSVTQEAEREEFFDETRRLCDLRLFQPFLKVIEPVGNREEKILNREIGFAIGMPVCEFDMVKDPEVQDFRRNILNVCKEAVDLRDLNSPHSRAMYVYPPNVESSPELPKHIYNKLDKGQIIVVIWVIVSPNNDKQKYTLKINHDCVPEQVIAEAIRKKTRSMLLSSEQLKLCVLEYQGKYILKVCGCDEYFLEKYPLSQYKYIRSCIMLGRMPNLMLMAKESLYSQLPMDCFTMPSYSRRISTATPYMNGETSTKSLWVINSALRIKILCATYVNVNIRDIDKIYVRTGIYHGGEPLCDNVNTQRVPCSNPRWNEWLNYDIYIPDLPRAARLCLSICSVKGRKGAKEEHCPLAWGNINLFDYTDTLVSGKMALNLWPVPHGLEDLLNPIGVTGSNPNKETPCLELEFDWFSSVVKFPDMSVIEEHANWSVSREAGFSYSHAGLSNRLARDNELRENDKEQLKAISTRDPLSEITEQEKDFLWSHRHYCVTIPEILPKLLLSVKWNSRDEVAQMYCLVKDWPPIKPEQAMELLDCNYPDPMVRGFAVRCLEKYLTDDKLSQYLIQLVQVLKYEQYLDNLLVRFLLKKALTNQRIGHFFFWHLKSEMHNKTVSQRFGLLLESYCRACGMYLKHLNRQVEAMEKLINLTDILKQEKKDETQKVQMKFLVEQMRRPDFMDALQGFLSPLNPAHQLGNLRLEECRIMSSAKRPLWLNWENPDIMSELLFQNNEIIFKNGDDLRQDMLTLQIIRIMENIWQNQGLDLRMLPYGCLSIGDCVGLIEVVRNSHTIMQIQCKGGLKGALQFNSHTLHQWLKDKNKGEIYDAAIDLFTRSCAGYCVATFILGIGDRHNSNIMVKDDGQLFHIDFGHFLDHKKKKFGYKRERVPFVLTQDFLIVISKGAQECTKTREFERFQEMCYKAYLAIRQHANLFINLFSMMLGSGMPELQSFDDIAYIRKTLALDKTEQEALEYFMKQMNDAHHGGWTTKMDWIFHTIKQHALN

[6] = Growth inhibition of PI3Kdelta-overexpressing human Pfeiffer cells incubated for 72 hrs by MTT assay; type: functional
[7] = target: T1, Phosphatidylinositol 4,5-bisphosphate 3-kinase catalytic subunit delta isoform (Homo sapiens, UniProt O00329); assay: Inhibition of recombinant PI3Kdelta (unknown origin) using PIP2:3PS as substrate preincubated for 20 mins followed by ATP addition and measured after 1 hrs by ADP-Glo reagent based assay
T1 sequence (O00329 whole entry): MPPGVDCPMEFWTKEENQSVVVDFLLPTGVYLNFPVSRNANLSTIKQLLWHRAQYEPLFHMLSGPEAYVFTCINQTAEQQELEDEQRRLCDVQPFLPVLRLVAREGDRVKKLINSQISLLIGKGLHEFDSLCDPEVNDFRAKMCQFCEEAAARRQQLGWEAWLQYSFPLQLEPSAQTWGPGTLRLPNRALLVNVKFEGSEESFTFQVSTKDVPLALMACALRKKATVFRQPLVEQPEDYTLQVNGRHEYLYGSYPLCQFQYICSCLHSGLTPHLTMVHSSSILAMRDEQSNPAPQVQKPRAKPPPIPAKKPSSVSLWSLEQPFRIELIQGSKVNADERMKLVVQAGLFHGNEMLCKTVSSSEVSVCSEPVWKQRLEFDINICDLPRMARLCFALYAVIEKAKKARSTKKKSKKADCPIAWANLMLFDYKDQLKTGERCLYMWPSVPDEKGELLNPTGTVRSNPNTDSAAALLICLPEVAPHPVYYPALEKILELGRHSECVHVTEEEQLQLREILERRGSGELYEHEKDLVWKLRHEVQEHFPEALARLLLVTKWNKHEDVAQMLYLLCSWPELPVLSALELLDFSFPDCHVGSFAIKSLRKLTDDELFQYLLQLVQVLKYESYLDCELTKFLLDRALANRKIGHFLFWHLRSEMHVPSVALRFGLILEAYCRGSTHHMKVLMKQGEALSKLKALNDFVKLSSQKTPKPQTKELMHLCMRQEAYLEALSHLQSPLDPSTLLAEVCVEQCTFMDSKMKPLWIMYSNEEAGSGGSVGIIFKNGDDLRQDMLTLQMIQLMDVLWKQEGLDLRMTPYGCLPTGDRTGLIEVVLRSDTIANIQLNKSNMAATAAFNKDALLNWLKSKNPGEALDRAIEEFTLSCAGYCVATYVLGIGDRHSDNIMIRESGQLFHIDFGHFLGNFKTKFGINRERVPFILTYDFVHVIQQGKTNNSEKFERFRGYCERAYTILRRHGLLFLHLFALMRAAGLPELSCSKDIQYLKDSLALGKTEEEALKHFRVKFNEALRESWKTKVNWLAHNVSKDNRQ

[8] = Chemical reactivity of the compound with N-Boc-Lysine assessed as half-life at 1 uM by HPLC analysis; type: physicochemical; details: incubation with N-Boc-Lysine

| SMILES | Ratio IC50 [1] | GI50 (Raji) [nM] | Ratio IC50 [2] | Ratio IC50 [4] | IC50 [5] [nM] | IC50 [7] [nM] | half-life at 1 µM [8] [min] | GI50 [3] [nM] | GI50 [6] [nM] |
| --- | --- | --- | --- | --- | --- | --- | --- | --- | --- |
| COc1ncc(-c2ccc3ncnc(N[C@H]4CCN(C(=O)C5CCOCC5)C4)c3c2)cc1C#N | 9 | > 10000 | 64 | 97 |  |  |  | 4550 |  |
| COc1ncc(-c2ccc3ncnc(N[C@H]4CCN(C(=O)C5CCOCC5)C4)c3c2)cc1C(=O)Oc1c(F)cc(F)cc1F |  |  |  |  | 86.9 | 1.08 | < 1 | 32 | 260 |
| COc1ncc(-c2ccc3ncnc(N[C@H]4CCN(C(=O)C5CCOCC5)C4)c3n2)cc1C(=O)Oc1ccc(C(F)(F)F)cc1 |  |  |  |  | 93.3 | 1.01 | 1.7 | 96 | 1260 |
| COc1ccc(OC(=O)c2cc(-c3ccc4ncnc(N[C@H]5CCN(C(=O)C6CCOCC6)C5)c4n3)cnc2OC)cc1 |  |  |  |  | 54.2 | 1.17 | 359 | 8 | 138 |
| COc1ncc(-c2ccc3ncnc(N[C@H]4CCN(C(=O)C5CCOCC5)C4)c3n2)cc1C(=O)Oc1c(F)cc(F)cc1F |  |  |  |  | > 1000 | 4.93 | < 1 | 65 | 438 |
| COC(=O)c1cc(-c2ccc3ncnc(N[C@H]4CCN(C(=O)C5CCOCC5)C4)c3n2)cnc1OC |  |  |  |  | > 1000 | 1.21 | > 1440 | 42 | 447 |

Now from value to compound, other results behind:

| Ratio IC50 [1] | GI50 (Raji) [nM] | Ratio IC50 [2] | Ratio IC50 [4] | IC50 [5] [nM] | IC50 [7] [nM] | half-life at 1 µM [8] [min] | SMILES | GI50 [3] [nM] | GI50 [6] [nM] |
| --- | --- | --- | --- | --- | --- | --- | --- | --- | --- |
|  |  |  |  | > 1000 | 4.53 | < 1 | COc1ncc(-c2ccc3ncnc(N[C@H]4CCN(C(=O)C5CCOCC5)C4)c3c2)cc1C(=O)Oc1ccc(C#N)cc1 | 27 | 479 |
|  |  |  |  | 120 | 6.6 | < 1 | COc1ncc(-c2ccc3ncnc(N[C@H]4CCN(C(=O)C5CCOCC5)C4)c3c2)cc1C(=O)Oc1ccc([N+](=O)[O-])cc1 | 52 | 575 |
|  |  |  |  | 51.4 | 1.86 | < 1 | COc1ncc(-c2ccc3ncnc(N[C@H]4CCN(C(=O)C5CCOCC5)C4)c3n2)cc1C(=O)Oc1ccc(C#N)cc1 | 32 | 425 |
|  |  |  |  | 145 | 2.47 | 353 | COc1ncc(-c2ccc3ncnc(N[C@H]4CCN(C(=O)C5CCOCC5)C4)c3c2)cc1C(=O)Oc1ccc(C)cc1 | 3 | 137 |
|  |  |  |  | 330 | 0.93 | 1.9 | COc1ncc(-c2ccc3ncnc(N[C@H]4CCN(C(=O)C5CCOCC5)C4)c3c2)cc1C(=O)Oc1ccc(C(F)(F)F)cc1 | 133 | 816 |
|  |  |  |  | 39.3 | 1.47 | 3.1 | COc1ncc(-c2ccc3ncnc(N[C@H]4CCN(C(=O)C5CCOCC5)C4)c3c2)cc1C(=O)Oc1ccc(F)cc1F | 64 | 433 |
|  |  |  |  | > 1000 | 1.59 | > 1440 | COC(=O)c1cc(-c2ccc3ncnc(N[C@H]4CCN(C(=O)C5CCOCC5)C4)c3c2)cnc1OC | 50 | 1240 |
|  |  |  |  | 13.5 | 6.11 | 326 | COc1ncc(-c2ccc3ncnc(N[C@H]4CCN(C(=O)C5CCOCC5)C4)c3n2)cc1C(=O)Oc1ccc(C)cc1 | 8 | 139 |
